# In paper PMC7434922, “Key role of quinone in the mechanism of respiratory complex I” (Nature Communications, 2020):
# T1: T. thermophilus complex I (NADH/FMN site, subunit Nqo1) (Thermus thermophilus, UniProt Q56222)
# T1 construct: same complex as P1, native from HB8 membranes; crystals with added recombinant His-tagged Nqo16; cryo-EM samples without Nqo16 (15 subunits); with NADH-quinone oxidoreductase subunit 2; NADH-quinone oxidoreductase subunit 3; NADH-quinone oxidoreductase subunit 4; NADH-quinone oxidoreductase subunit 5; NADH-quinone oxidoreductase subunit 6; NADH-quinone oxidoreductase subunit 7; NADH-quinone oxidoreductase subunit 8; NADH-quinone oxidoreductase subunit 9; NADH-quinone oxidoreductase subunit 10; NADH-quinone oxidoreductase subunit 11; NADH-quinone oxidoreductase subunit 12; NADH-quinone oxidoreductase subunit 13; NADH-quinone oxidoreductase subunit 14; NADH-quinone oxidoreductase subunit 15; NADH-quinone oxidoreductase subunit 16
# T1 sequence (Q56222 1-438): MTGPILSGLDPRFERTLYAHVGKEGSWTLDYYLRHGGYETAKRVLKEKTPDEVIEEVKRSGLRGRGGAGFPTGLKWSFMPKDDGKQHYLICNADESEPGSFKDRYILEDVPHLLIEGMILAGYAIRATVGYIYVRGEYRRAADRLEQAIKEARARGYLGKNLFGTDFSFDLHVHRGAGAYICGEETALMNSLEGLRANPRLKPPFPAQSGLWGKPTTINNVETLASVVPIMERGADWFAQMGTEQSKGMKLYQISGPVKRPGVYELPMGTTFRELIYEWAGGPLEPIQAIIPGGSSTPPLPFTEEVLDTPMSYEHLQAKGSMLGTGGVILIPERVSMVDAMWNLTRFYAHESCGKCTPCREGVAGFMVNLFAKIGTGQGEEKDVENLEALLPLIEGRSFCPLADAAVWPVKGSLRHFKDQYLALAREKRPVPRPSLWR
# T1 sequence (Q56221 2-181 partner): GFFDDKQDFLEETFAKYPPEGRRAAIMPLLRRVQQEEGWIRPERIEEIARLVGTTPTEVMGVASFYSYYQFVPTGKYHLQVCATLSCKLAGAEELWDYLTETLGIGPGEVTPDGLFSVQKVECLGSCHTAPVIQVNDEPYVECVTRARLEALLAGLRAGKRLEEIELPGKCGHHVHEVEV
# T1 sequence (Q56223 1-783 partner): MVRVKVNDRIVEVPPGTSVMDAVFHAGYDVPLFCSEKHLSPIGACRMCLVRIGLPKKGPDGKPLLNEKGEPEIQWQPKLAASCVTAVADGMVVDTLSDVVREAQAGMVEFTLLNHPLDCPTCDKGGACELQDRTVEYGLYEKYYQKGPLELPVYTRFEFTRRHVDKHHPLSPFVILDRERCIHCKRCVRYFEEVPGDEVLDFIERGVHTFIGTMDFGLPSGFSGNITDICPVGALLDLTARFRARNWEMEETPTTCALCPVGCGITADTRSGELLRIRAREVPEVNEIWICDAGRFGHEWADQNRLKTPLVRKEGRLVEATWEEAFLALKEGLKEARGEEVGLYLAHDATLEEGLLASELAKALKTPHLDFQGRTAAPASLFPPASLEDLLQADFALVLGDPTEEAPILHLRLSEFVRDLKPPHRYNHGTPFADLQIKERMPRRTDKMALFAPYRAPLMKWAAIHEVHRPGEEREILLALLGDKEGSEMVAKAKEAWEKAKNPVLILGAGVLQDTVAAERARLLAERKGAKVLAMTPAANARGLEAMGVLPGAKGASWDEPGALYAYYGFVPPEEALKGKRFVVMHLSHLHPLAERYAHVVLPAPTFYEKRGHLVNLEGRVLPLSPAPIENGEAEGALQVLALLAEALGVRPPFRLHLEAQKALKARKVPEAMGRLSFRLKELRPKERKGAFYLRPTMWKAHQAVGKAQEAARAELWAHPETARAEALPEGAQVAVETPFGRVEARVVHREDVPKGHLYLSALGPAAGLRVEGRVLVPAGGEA
# T2: Complex I subunit Nqo10 (Thermus thermophilus) (T. thermophilus HB8, UniProt Q56225 1-176)
# T2 construct: Nqo10, core subunit of the membrane domain of respiratory complex I, Thermus thermophilus HB8; Endogenous subunit inside the crystallised intact complex; source: purified from T. thermophilus HB8 cells as part of intact complex I (anion exchange, cation exchange, gel filtration)
# T2 sequence (looked up): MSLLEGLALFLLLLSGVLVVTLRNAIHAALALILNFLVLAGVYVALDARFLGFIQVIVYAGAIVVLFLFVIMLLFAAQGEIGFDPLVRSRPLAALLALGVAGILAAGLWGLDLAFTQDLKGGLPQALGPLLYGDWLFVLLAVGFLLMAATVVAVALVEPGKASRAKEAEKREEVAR
# T3: Complex I antiporter-like subunit Nqo14 (Thermus thermophilus) (T. thermophilus HB8, UniProt Q56229 1-427)
# T3 construct: Nqo14, antiporter-like core subunit of the membrane domain of respiratory complex I, Thermus thermophilus HB8; Endogenous subunit inside the crystallised intact complex; source: purified from T. thermophilus HB8 cells as part of intact complex I (anion exchange, cation exchange, gel filtration)
# T3 sequence (looked up): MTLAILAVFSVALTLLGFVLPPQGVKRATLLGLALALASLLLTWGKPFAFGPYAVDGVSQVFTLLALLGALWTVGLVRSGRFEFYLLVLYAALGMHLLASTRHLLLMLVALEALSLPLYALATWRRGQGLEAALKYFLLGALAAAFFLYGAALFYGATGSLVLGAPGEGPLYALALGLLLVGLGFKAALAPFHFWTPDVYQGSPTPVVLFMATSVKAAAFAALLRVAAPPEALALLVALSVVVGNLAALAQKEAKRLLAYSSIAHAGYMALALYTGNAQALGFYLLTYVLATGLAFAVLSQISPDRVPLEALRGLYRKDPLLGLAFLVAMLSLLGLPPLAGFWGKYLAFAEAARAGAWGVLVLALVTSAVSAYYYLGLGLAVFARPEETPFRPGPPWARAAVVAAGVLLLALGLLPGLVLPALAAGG
# Assays:
# [1] = target: T1, T. thermophilus complex I (NADH/FMN site, subunit Nqo1); assay: X-ray crystal structure; format: binding; details: resident cofactor in Nqo1; same crystal
# [2] = target: T4, T. thermophilus complex I (quinone site, Q-site) (Thermus thermophilus, UniProt Q56218+Q56220+Q60019); assay: X-ray crystal structure; format: binding; details: crystal soaked overnight in 500 uM DQ, pH 6.0; Q-site (Y87_4, H38_4)
# T4 construct: gene nqo4; native intact complex purified from T. thermophilus HB8 membranes in TDM; 16 subunits, 550 kDa; for crystals recombinant His-tagged Nqo16 (E. coli) was added; activity preparation has sub-stoichiometric Nqo16; with NADH-quinone oxidoreductase subunit 1; NADH-quinone oxidoreductase subunit 2; NADH-quinone oxidoreductase subunit 3; NADH-quinone oxidoreductase subunit 5; NADH-quinone oxidoreductase subunit 7; NADH-quinone oxidoreductase subunit 9; NADH-quinone oxidoreductase subunit 10; NADH-quinone oxidoreductase subunit 11; NADH-quinone oxidoreductase subunit 12; NADH-quinone oxidoreductase subunit 13; NADH-quinone oxidoreductase subunit 14; NADH-quinone oxidoreductase subunit 15; NADH-quinone oxidoreductase subunit 16
# [3] = target: T1, T. thermophilus complex I (NADH/FMN site, subunit Nqo1); assay: X-ray crystal structure; also cryo-EM (6ZIY); format: binding; details: crystal soaked 4.5 min in 20 mM NADH, 20 mM dithionite, anaerobic, pH 6.0
# [4] = target: T2, Complex I subunit Nqo10 (Thermus …); assay: crystal structure; intact complex I purified from T. thermophilus mixed with purified recombinant Nqo16 (1:0.2 CXI:Nqo16), sitting drop at 23 °C, 100 mM Bis-Tris pH 6.0, 19-25% PEG 4000, 100 mM KCl, 100 mM glutaric acid, detergents; native crystals and crystals soaked or co-crystallised with NADH, decylubiquinone, piericidin A, aureothin or pyridaben; details: both partners purified
# [5] = target: T3, Complex I antiporter-like subunit Nqo14 …; assay: as above; details: both partners purified
molecule,measurement,setting,value
"Cc1cc2nc3c(=O)[nH]c(=O)nc-3n(C[C@H](O)[C@H](O)[C@H](O)COP(=O)(O)O)c2cc1C [FMN, flavin-mononucleotide]",X-ray crystal structure,[1],The FMN is coordinated by subunit Nqo1 at the deep end
"CCCCCCCCCCC1=C(C)C(=O)C(OC)=C(OC)C1=O [DQ, decylubiquinone]",X-ray crystal structure,[2],DQ interacts mainly with the residues mentioned above with its hydrocarbon chain surrounded by
NC(=O)C1=CN([C@@H]2O[C@H](COP(=O)(O)OP(=O)(O)OC[C@H]3O[C@@H](n4cnc5c(N)ncnc54)[C@H](O)[C@@H]3O)[C@@H](O)[C@H]2O)C=CC1 [NADH],X-ray crystal structure; also cryo-EM (6ZIY),[3],Our crystal structure of intact complex I with bound NADH confirms the binding mode
"Complex I subunit Nqo11 (Thermus thermophilus) (natural protein, T. thermophilus HB8, UniProt Q56226 1-95, looked up, Nqo11, core subunit of the membrane domain of respiratory complex I, Thermus thermophilus HB8; Endogenous subunit inside the crystallised intact complex; source: purified from T. thermophilus HB8 cells as part of intact complex I (anion exchange, cation exchange, gel filtration)) MSYLLTSALLFALGVYGVLTRRTAILVFLSIELMLNAANLSLVGFARAYGLDGQVAALMVIAVAAAEVAVGLGLIVAIFRHRESTAVDDLSELRG",binding result,[4],binds
same,binding result,[5],binds
